In series [1] the test system is Maximal electroshock seizures. Briefly: MES maximal electroshock seizure test, mice ip. The series is classed as in vivo. The settings on record: for responders at 100 mg/kg / responders at 300 mg/kg / responders at 30 mg/kg: Mus musculus, ip; for responders at 100 mg/kg: read-out: MES, animals protected/tested (converted); for responders at 300 mg/kg / responders at 30 mg/kg: read-out: MES, animals protected/tested. The procedure:
Three tests were performed:
1. MES--Electroshock Seizure Test
(§1) Maximal electroshock seizures are elicited with a 60-cycle alternating current of 50 mA intensity (5-7 times that necessary to elicit minimal electroshock seizures) delivered via corneal electrodes for 0.2 seconds. A drop of 0.9% saline is instilled in the eye prior to application of the electrodes in order to […].
On the technique in general: The maximal electroshock test induces tonic seizures with an electrical stimulus.

The test system of a further series is seizures. Description: Anticonvulsant evaluation (ASP phase I / overall). The series is classed as in vivo, mice. Conditions: for minimal effective dose: Mus musculus, ip, Phase I, read-out: ASP Classification; for anticonvulsant activity / phase I evaluations: mouse, in vivo; for activity compared with 12: substituted benzylamines; for activity compared with benzylamine counterpart: 27 vs 16, 28 vs 17, 29 vs 20. The procedure: The first phase of the ADD Program involved performing tests on male Carworth Farms #1 mice. […] Three tests were performed:
as §1
The animal is observed for 30 minutes.

Series [2] relates to Subcutaneous Pentylenetetrazol seizure. Briefly: sc Met subcutaneous pentylenetetrazol (Metrazol) seizure test, mice. The series is classed as in vivo. The settings on record: for responders at 100 mg/kg / responders at 300 mg/kg / responders at 30 mg/kg: Mus musculus, sc; for responders at 100 mg/kg / responders at 300 mg/kg: read-out: scMet, animals protected/tested (converted); for scMet evaluation: Phase I; for responders at 30 mg/kg: read-out: scMet, animals protected/tested.
Protocol: 2. sc Met--Subcutaneous Pentylenetetrazol (Metrazol^R) Seizure Test
The animal is observed for 30 minutes. Failure to observe even a threshold seizure (a single episode of clonic spasms of at least 5 seconds duration) is defined as protection and the results are expressed as the number of animals protected/the number of animals tested.

Series [3] deals with Maximal electroshock seizures. Description: Phase VI oral MES test, rats. The series is classed as in vivo. The settings on record: oral, 50 mg/kg; for responders at 50 mg/kg: Rattus norvegicus, read-out: MES, animals protected/tested (converted).
Source text: as §1
(§2) This oral screen is designated as phase VI.

A further series is described as follows: in vivo. The settings on record: rat, po, 50 mg/kg.
Source text: as §2

Setting [4] is: 0.5 h, 300 mg/kg, 30 min, second trial.

This note sets out measurements from patent US5616615A, “Enaminone esters” (priority 1995, dated 1997).

“Also recorded” adds a separate entry of the source. Where two headings read alike, the source gives them in different places. Some results are limits rather than exact numbers.

As to `CCc1ccc(NC2=CC(=O)C(C(=O)OC)C(C)C2)cc1` (centres unmarked) [Compound 26], the responders at 100 mg/kg was 66.7% in series [1] (0.5 h, 100 mg/kg, 30 min); 0% in series [1] (4 h, 100 mg/kg, 4 h); 0% in series [2] (0.5 h, 100 mg/kg, 30 min); 0% in series [2] (4 h, 100 mg/kg, 4 h). In the series with seizures, the minimal effective dose was less than 100 mg/kg. For the same molecule, in the series on seizures, the “anticonvulsant activity” value is on record as “anticonvulsant activity was observed”.
As for `COC(=O)C1C(=O)C=C(NCc2ccc(C(=O)O)cc2)CC1C` (centres unmarked) [Compound 18], in the series with seizures, the “anticonvulsant activity” value was “inactive” and the “activity compared with 12” value is recorded as “only a slight modification in activity”.
On to `COC(=O)C1C(=O)C=C(NCc2ccc([N+](=O)[O-])cc2)CC1C` (centres unmarked) [Compound 20], for which the “activity compared with 12” value with seizures is “only a slight modification in activity”.
Consider `CC1(C)CC(=O)C=C(Nc2ccc(C(F)(F)F)cc2)C1` [Compound 144], for which the responders at 50 mg/kg in series [3] (0.5 h, 0.50 h) was 0%; in series [3] (0.25 h), 0%; in series [3] (1.00 h), 75%; in series [3] (2.00 h) it was 25%; in series [3] (4.00 h), 100%. Besides, the responders at 100 mg/kg in series [1] (0.5 h, 100 mg/kg, 30 min) is 0%; in series [1] (4 h, 100 mg/kg, 4 h) it was 66.7%; in series [2] (0.5 h, 100 mg/kg, 30 min), 0%; in series [2] (4 h, 100 mg/kg, 4 h) it was 0%. In addition, the responders at 300 mg/kg is 0% in series [1] (0.5 h, 300 mg/kg, 30 min); 0% in series [1] (4 h, 300 mg/kg, 4 h); 100% in series [2] (0.5 h, 300 mg/kg, 30 min); 0% in series [2] (4 h, 300 mg/kg, 4 h). Also, the minimal effective dose in the series with seizures is less than 100 mg/kg. Moreover, in the series “in vivo”, the “Tox, animals toxic/tested” value is recorded as 0/4.
In the case of `COC(=O)C1C(=O)C=C(NNc2ccccc2)CC1C` (centres unmarked) [Compound 25], the responders at 300 mg/kg in series [1] (0.5 h, 300 mg/kg, 30 min) is 100%; in series [1] (4 h, 300 mg/kg, 4 h), 0%; in series [2] (setting [4]), 0%; in series [2] (0.5 h, 300 mg/kg, 30 min) it was 100%; in series [2] (4 h, 300 mg/kg, 4 h), 0%. Also, the minimal effective dose with seizures was greater than 100 mg/kg. In addition, the “scMet evaluation” value in series [2] is listed as “spurious results”.
Take `CC1(C)CC(=O)C=C(Nc2ccc(C(C)(C)C)cc2)C1` [Compound 143]: the responders at 100 mg/kg is 0% in series [1] (0.5 h, 100 mg/kg, 30 min); 0% in series [1] (4 h, 100 mg/kg, 4 h); 20% in series [2] (0.5 h, 100 mg/kg, 30 min); 0% in series [2] (4 h, 100 mg/kg, 4 h). Also, the responders at 300 mg/kg in series [1] (0.5 h, 300 mg/kg, 30 min) was 0%; in series [1] (4 h, 300 mg/kg, 4 h), 0%; in series [2] (0.5 h, 300 mg/kg, 30 min), 20%; in series [2] (4 h, 300 mg/kg, 4 h), 0%. Also, the minimal effective dose in the series on seizures is less than 100 mg/kg.
As to `COC(=O)C1C(=O)C=C(NN2CCOCC2)CC1C` (centres unmarked) [Compound 33], the “phase I evaluations” value in the series with seizures was “neither was active”.
Take `O=C1C=C(NCc2ccccc2)CCC1` [Compound 153]: the “MES, animals protected/tested” value in series [3] (0.25 h) is listed as 0/4; in series [3] (0.50 h) it was 2/4; in series [3] (1.00 h), 3/4; in series [3] (2.00 h), 3/4; in series [3] (4.00 h) it was 1/4; in series [1] (100 mg/kg, 30 min), 3/3. In addition, the “MES, animals protected/tested” value was 0/3 in series [1] (100 mg/kg, 4 h); 1/1 in series [1] (300 mg/kg, 30 min); 1/1 in series [1] (300 mg/kg, 4 h). Moreover, the “scMet, animals protected/tested” value is listed as 0/1 in series [2] (100 mg/kg, 30 min); 0/1 in series [2] (100 mg/kg, 4 h); 0/1 in series [2] (300 mg/kg, 30 min); 0/1 in series [2] (300 mg/kg, 4 h).
On to `COC(=O)C1C(=O)C=C(Nc2ccc(C)cc2)CC1C` (centres unmarked) [Compound 28], for which the responders at 30 mg/kg turned out to be 0% in series [1] (0.5 h, 30 min); 0% in series [1] (4 h, 4 h); 0% in series [2] (0.5 h, 30 min, second trial); 100% in series [2] (0.5 h, 30 min); 0% in series [2] (4 h, 4 h). In addition, the responders at 300 mg/kg in series [1] (0.5 h, 300 mg/kg, 30 min) was 100%; in series [1] (4 h, 300 mg/kg, 4 h), 0%; in series [2] (0.5 h, 300 mg/kg, 30 min) it was 0%; in series [2] (4 h, 300 mg/kg, 4 h), 0%. Also, the “activity compared with benzylamine counterpart” value in the series with seizures is listed as “activity is enhanced in all cases”. The minimal effective dose in the series on seizures was less than 100 mg/kg. Besides, the “anticonvulsant activity” value with seizures is “anticonvulsant activity was observed”. Further, in series [2], the “scMet evaluation” value is “spurious results”.
As for `COC(=O)C1C(=O)C=C(Nc2ccc([N+](=O)[O-])cc2)CC1C` (centres unmarked) [Compound 29], the responders at 100 mg/kg is 0% in series [1] (0.5 h, 100 mg/kg, 30 min); 0% in series [1] (4 h, 100 mg/kg, 4 h); 0% in series [2] (0.5 h, 100 mg/kg, 30 min, second trial); 100% in series [2] (0.5 h, 100 mg/kg, 30 min); 0% in series [2] (4 h, 100 mg/kg, 4 h). Moreover, in the series on seizures, the “activity compared with benzylamine counterpart” value is “activity is enhanced in all cases”. Besides, in the series with seizures, the minimal effective dose is less than 100 mg/kg.
`O=C1C=C(NCc2ccccc2)CC(c2ccccc2)C1C(=O)NCc1ccccc1` (centres unmarked) [Compound 11]: in the series with seizures, the “anticonvulsant activity” value was “inactive”.
For `COC(=O)C1C(=O)C=C(NCCc2ccccc2)CC1(C)C` (centres unmarked) [Compound 14], the responders at 100 mg/kg is 33.3% in series [1] (0.5 h, 100 mg/kg, 30 min); 0% in series [1] (4 h, 100 mg/kg, 4 h); 0% in series [2] (0.5 h, 100 mg/kg, 30 min); 0% in series [2] (4 h, 100 mg/kg, 4 h). Further, the responders at 300 mg/kg in series [1] (0.5 h, 300 mg/kg, 30 min) was 100%; in series [1] (4 h, 300 mg/kg, 4 h), 0%; in series [2] (0.5 h, 300 mg/kg, 30 min) it was 0%; in series [2] (4 h, 300 mg/kg, 4 h) it was 0%. Also, the minimal effective dose in the series on seizures was less than 100 mg/kg.
For `COC(=O)C1C(=O)C=C(Nc2ccc(C(=O)O)cc2)CC1C` (centres unmarked) [Compound 32], the “anticonvulsant activity” value in the series on seizures is “comparable to inactive 18 in the benzylamine series”.
Regarding `COC(=O)C1C(=O)C=C(Nc2cc(OC)ccc2OC)CC1C` (centres unmarked) [Compound 31, methyl 4-(2', 5'-dimethoxy)-phenylamino-6-methyl-2-oxo-cyclohex-3-en-1-oate], the responders at 100 mg/kg was 33.3% in series [1] (0.5 h, 100 mg/kg, 30 min); 0% in series [1] (4 h, 100 mg/kg, 4 h); 0% in series [2] (0.5 h, 100 mg/kg, 30 min); 0% in series [2] (4 h, 100 mg/kg, 4 h). Moreover, the responders at 300 mg/kg is 100% in series [1] (0.5 h, 300 mg/kg, 30 min); 0% in series [1] (4 h, 300 mg/kg, 4 h); 0% in series [2] (0.5 h, 300 mg/kg, 30 min); 0% in series [2] (4 h, 300 mg/kg, 4 h). Also, the minimal effective dose with seizures is less than 100 mg/kg. Further, the “anticonvulsant activity” value in the series with seizures is “anticonvulsant activity was observed”.
Consider `CC1(C)CC(=O)C=C(NCc2ccccc2)C1` [Compound 19], for which the responders at 100 mg/kg in series [1] (0.5 h, 100 mg/kg, 30 min) is 33.3%; in series [1] (4 h, 100 mg/kg, 4 h), 0%; in series [2] (0.5 h, 100 mg/kg, 30 min), 0%; in series [2] (4 h, 100 mg/kg, 4 h), 0%. Also, the responders at 300 mg/kg in series [1] (0.5 h, 300 mg/kg, 30 min) was 100%; in series [1] (4 h, 300 mg/kg, 4 h) it was 100%; in series [2] (0.5 h, 300 mg/kg, 30 min) it was 0%; in series [2] (4 h, 300 mg/kg, 4 h), 0%. In the series with seizures, the minimal effective dose was less than 100 mg/kg. Moreover, in the series with seizures, the “anticonvulsant activity” value is given as “potent anticonvulsants”.
With `COC(=O)C1C(=O)C=C(NCc2ccc(Cl)cc2)CC1C` (centres unmarked) [Compound 16], the responders at 300 mg/kg in series [1] (0.5 h, 300 mg/kg, 30 min) was 100%; in series [1] (4 h, 300 mg/kg, 4 h) it was 100%; in series [2] (setting [4]) it was 0%; in series [2] (0.5 h, 300 mg/kg, 30 min), 100%; in series [2] (4 h, 300 mg/kg, 4 h), 0%. Also, the minimal effective dose with seizures was greater than 100 mg/kg. Besides, the “activity compared with 12” value in the series with seizures is reported as “only a slight modification in activity”. For the same molecule, the “scMet evaluation” value in series [2] is reported as “spurious results”.
For `COC(=O)C1C(=O)C=C(NCc2ccc(C)cc2)CC1C` (centres unmarked) [Compound 17], in the series on seizures, the “anticonvulsant activity” value is “inactive” and the “activity compared with 12” value is given as “only a slight modification in activity”.
As to `COC(=O)C1C(=O)C=C(Nc2cc(C)ccc2OC)CC1C` (centres unmarked) [Compound 30], in the series on seizures, the “anticonvulsant activity” value is “anticonvulsant activity was observed”.
As to `COC(=O)C1C(=O)C=C(NN2CCOCC2)CC1C` (centres unmarked) [Compound 34], the “phase I evaluations” value in the series with seizures is reported as “neither was active”.
For the molecule `COC(=O)C1C(=O)C=C(Nc2ccc(O)cc2)CC1C` (centres unmarked) [Compound 35], the “anticonvulsant activity” value with seizures was “inactive”.
On the same count and under the same terms, then `COC(=O)C1C(=O)C=C(Nc2ccccc2)CC1C` (centres unmarked) [Compound 24], with “activity was lost; also recorded: inactive”.
